Results as given in ChEMBL document CHEMBL1151347, “Lignans From Justicia flava” (J Nat Prod, 1980).
Activity calls are given as the source filed them. The calls are words filed in the database; no cut-off is given here.

What was measured:
Mus musculus [1] = species: Mus musculus; test: Effect on central nervous system in mouse assessed as decrease in motor activity; format: functional, organism-based
Mus musculus [2] = species: Mus musculus; test: Effect on central nervous system in mouse assessed as ataxia; format: functional, organism-based

SMILES	Activity (Mus musculus [1])	Activity (Mus musculus [2])
COc1cc(OC)c2c(-c3ccc4c(c3)OCO4)c3c(c(OC)c2c1O)COC3=O	inactive	inactive
COc1cc([C@H]2c3cc(O)c(OC)cc3C[C@@H](CO)[C@@H]2CO)ccc1O	inactive	inactive
O=C1OCc2c1cc1ccc3c(c1c2-c1ccc2c(c1)OCO2)OCO3	inactive	inactive
